Drawing on patent US20080248548A1, “MODULATION OF PROTEIN FUNCTIONALITIES” (priority 2007, published 2008), this text covers Time-dependent for four molecules.

The assay deals with T1, p38 MAP kinase (Homo sapiens, UniProt Q16539).
T1 construct: made in house; host or cells: E. coli
T1 sequence (Q16539 whole entry): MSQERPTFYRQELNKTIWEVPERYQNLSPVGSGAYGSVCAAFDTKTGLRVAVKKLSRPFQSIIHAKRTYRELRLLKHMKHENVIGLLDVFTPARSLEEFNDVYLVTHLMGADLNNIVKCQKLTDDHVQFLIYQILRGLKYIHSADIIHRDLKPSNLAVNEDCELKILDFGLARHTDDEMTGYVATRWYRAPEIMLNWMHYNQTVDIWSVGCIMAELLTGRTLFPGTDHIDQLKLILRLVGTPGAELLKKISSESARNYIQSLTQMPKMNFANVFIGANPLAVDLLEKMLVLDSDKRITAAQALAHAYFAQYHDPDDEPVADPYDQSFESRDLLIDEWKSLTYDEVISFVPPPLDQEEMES
The assay can be described thus: P38 MAP kinase binding assay (competition with fluorescent probe SKF 86002). The conditions noted are these: inhibition assigned as time-dependent if the IC50 values decrease with the reaction time (more than two-fold in four hours). On the procedure:
Thus, the ability of a small molecule to block fluoroprobe binding provides an experimental readout of binding to the switch control pocket. […] The reaction was initiated by addition of the enzyme. […] By comparison of rfu (relative fluorescence unit) values with that of a control (in the absence of small molecule modulators), the percentage of inhibition at each concentration of the small molecules were calculated. IC50 values for the small molecule modulators were calculated from the % inhibition values obtained at a range of concentrations of the small molecule modulators using Prism. When time-dependent inhibition was assessed, the plate was read at multiple reaction times such as 0.5, 1, 2, 3, 4 and 6 hours. The IC50 values were calculated at each time point. An inhibition was assigned as time-dependent if the IC50 values decrease with the reaction time (more than two-fold in four hours).
`CC1(C(=O)O)CC2(C)CC(C)(C1)C(=O)N(Cc1cccc(-n3nc(C(C)(C)C)cc3NC(=O)Nc3cccc4ccccc34)c1)C2=O` (stereo not shown) [Example 11]: the Time-dependent entry is listed as “No”.

With `CC1(C(=O)O)CC2(C)CC(C)(C1)C(=O)N(Cc1cccc(-n3nc(C(C)(C)C)cc3NC(=O)Nc3ccc(Cl)cc3)c1)C2=O` (stereo not shown) [Example 12], the Time-dependent result is “No”.

As to `CC(C)(C)c1cc(NC(=O)Nc2cccc3ccccc23)n(-c2cccc(CC(=O)N3CCOCC3)c2)n1` [Example 21, 1-{3-tert-butyl-1-[3-(2-morpholino-2-oxoethyl)phenyl)-1H-pyrazol-5-yl}-3-(naphthalene-1-yl)urea], the Time-dependent entry is “Yes”. Turning to `CC(C)(C)c1cc(NC(=O)Nc2cccc3ccccc23)n(-c2ccc(CN)cc2)n1` [Example 45, 1-{3-tert-butyl-1-[4-(aminomethyl)phenyl]-1H-pyrazol-5-yl}-3-(naphthalen-1-yl)urea], the Time-dependent result is “No”.
